Assay results from patent US6730334B2, “Multi-arm block copolymers as drug delivery vehicles” (Nektar Therapeutics AL, Corporation, priority 2001, dated 2004).
In brackets after ≈: the same amount, converted by molar mass.

What was measured:
[1] = Solubility of drugs in plain buffer and in PPO-PEG multi-arm block copolymer 10050 formulation; assay type: physicochemical; conditions: thermodynamic from solid; for solubility: aqueous buffer, phosphate buffer, 0.1 M, pH 7.4, read-out: Solubility of Drug in Plain Buffer; for solubility at 2 h: aqueous with cosolvent or surfactant or cyclodextrin, 50 mg PPO-PEG block copolymer 10050/drug formulation, 10 wt. % drug loading, in 1 ml phosphate buffer 0.1 M pH 7.4, 0.2 μm filtered
Description: After two hours of mixing, the mixture was filtered through 0.2 μm syringe filter. The drug concentration in the filtrate was determined by HPLC or UV using a standard curve.

[2] = Drug concentration by HPLC in drug-loaded 8-arm-PCL-PEG26kDa solution; assay type: physicochemical; conditions: 6 mg drug + 60 mg 8-arm-PCL-PEG26kDa (1/10) in 1 ml phosphate buffer 0.1 M pH 7.0, 0.2 μm filtered
Description: (§1) The solution was dried under argon. The dried solid was heated at 55° C. for two hours under argon. The melt was then cooled to room temperature, placed under vacuum overnight, and reduced to small particles. To the particles was added 1 ml of phosphate buffer (0.1 M, pH 7.0), and the resulting mixture was filtered through 0.2 μm syringe filter.
as §1, with “temperature and” for “temperature,”, “7.0). The” for “7.0), and the”

[3] = drug-loaded 8-arm-PCL-PEG26kDa, phosphate buffer 0.1 M pH 7.0, 37° C., rp-HPLC
Description: At timed intervals, 10 μl of sample was withdrawn and diluted with phosphate buffer (0.1 M, pH 7.0). The solution was filtered through 0.2 μm syringe filter.
At timed intervals, 10 μl of sample was withdrawn and diluted with phosphate buffer (0.1 M, pH 7.0). The solution was filtered through 0.2 μm syringe filter. The filtrate was analyzed by rp-HPLC for paclitaxel concentration.

SMILES	solubility [1]	solubility at 2 h [1]	Drug concentration by HPLC [2]	Soluble drug concentration in solution vs. time (FIGS. 8, 9) [3]
COc1ccc2c(c1)c(CC(=O)O)c(C)n2C(=O)c1ccc(Cl)cc1 [Indomethacin, indomethacin]	88 µg/mL (≈ 0.246 mM)	4000 µg/mL (≈ 11.2 mM)	–	–
Cn1cc(C2=C(c3cn(C)c4cc([N+](=O)[O-])ccc34)C(=O)NC2=O)c2ccc([N+](=O)[O-])cc21 [MNIPD, 3,4-di-[1-methyl 6-nitro-3-indolyl]-1H-pyrrole-2,5-dione]	< 0.5 µg/mL	2600 µg/mL (≈ 5.84 mM)	–	–
CC(=O)O[C@H]1C(=O)[C@@]2(C)[C@H]([C@H](OC(=O)c3ccccc3)[C@]3(O)C[C@H](OC(=O)[C@H](O)[C@@H](NC(=O)c4ccccc4)c4ccccc4)C(C)=C1C3(C)C)[C@]1(OC(C)=O)CO[C@@H]1C[C@@H]2O [Paclitaxel, paclitaxel]	< 1 µg/mL	2000 µg/mL (≈ 2.34 mM)	above 4.5 mg/ml	retain the paclitaxel in solution for an extended period of time
CCCC(=O)OCOC(=O)C(C)(C)C [Pivaloyloxymethyl butyrate, pivaloyloxymethyl butyrate]	–	12000 µg/mL (≈ 59.3 mM)	–	–
